Reference: ChEMBL document CHEMBL1201862, “PubChem BioAssay data set” (2004)
Active and inactive are the calls of the source.

Key:
[1] = biological target: G-protein coupled receptor 183 (Homo sapiens, UniProt P32249); experiment: SAR confirmation of small molecule antagonists of the EBI2 receptor via a luminescent beta-arrestin assa.; type: functional
Genome polyprotein = Genome polyprotein (Hepatitis C virus, UniProt Q2Q167); experiment: disruption of hepatitis C core self-association – biochemical, TR-FRET, dose response (AID 2159); design: species or system Hepacivirus hominis;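 also: blocks dimerization of HCV core protein measured by TR-FRET between tagged core106 pairs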
Sequence of Genome polyprotein (Q2Q167 whole entry): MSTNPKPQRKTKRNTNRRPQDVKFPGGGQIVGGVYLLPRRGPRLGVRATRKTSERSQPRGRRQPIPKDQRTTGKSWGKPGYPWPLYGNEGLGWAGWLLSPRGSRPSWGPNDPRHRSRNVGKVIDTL

[2] = P. falciparum Dd2 growth inhibitors, dose response, SYBR Green, cherry-picked samples (AID 1159567); type: functional, cell-based
[3] = growth inhibition of yeast DHODH-expressing 3D7 parasites – SYBR Green, dry powder samples, dose response (AID 1159570); type: functional, cell-based;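 also: parasite growth measured after 72 hours of compound exposure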
[4] = Dd2 parasite growth inhibition in erythrocytes – SYBR Green, dry powder samples, set 9, dose response (AID 1159568); type: functional, cell-based
[5] = growth inhibition of PfATP4-mutant resistant parasites – NITD609-resistant line, SYBR Green, dry powder, dose response (AID 1159571); type: functional, cell-based;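 also: parasites synchronized at ring stage by sorbitol before testing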
[6] = Plasmodium falciparum Dd2 Sybr green parasite growth Measured in Cell-Based and Microorganism Combination System Using Plate Reader - 2153-01_Inhibitor_Dose_DryPowder_Activity_Set3.; type: functional
[7] = Dd2 malaria parasite growth inhibition potency – SYBR Green, dry powder samples, dose response (AID 1159566); type: functional, cell-based;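 also: potency for growth inhibition with lower SYBR green DNA signal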
[8] = biological target: T1, Tyrosine-protein phosphatase non-receptor type 7 (Homo sapiens, UniProt P35236); experiment: HePTP tyrosine phosphatase activity blockers – biochemical, absorbance, leukemia target, primary screen (AID 521); type: functional
T1 sequence (P35236 whole entry): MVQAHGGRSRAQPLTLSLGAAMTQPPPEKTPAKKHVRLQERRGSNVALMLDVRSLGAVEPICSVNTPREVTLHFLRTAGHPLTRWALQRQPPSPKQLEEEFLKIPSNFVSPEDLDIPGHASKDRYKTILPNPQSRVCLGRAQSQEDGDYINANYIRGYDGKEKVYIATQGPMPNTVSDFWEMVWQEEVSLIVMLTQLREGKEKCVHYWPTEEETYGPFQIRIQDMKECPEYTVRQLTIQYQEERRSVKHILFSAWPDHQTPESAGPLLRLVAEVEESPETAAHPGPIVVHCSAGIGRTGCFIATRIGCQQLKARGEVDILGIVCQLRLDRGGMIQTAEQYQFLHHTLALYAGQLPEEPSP

[9] = viability of HCT116 lacking mutant beta-catenin – cell-based, human colon tumor, dose response (AID 1045); type: functional;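 also: HCT116 colon tumor cells with beta catenin knocked out; cells exposed to compound for 60 hours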
[10] = microbe, parasite or virus in culture; type: functional; conditions: Mycobacterium tuberculosis
[11] = HEK-293T cell viability reduction – luminescence, B-cell screen hits, cytotoxicity control for BCR NF-kB inhibitor project, dose response (AID 489021); type: functional, cell-based;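 also: HEK-293T cells carrying an NF-kB luciferase reporter; cells exposed to compound for about 14 hours before viability readout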
[12] = Trypanosoma cruzi growth suppression in host cells – NIH3T3 host cells, beta-gal luminescence, confirmation (AID 2044); type: functional, cell-based;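 also: intracellular parasites grown in NIH/3T3 mouse fibroblasts as host cells; luminescent beta-galactosidase reporter signal from transgenic T. cruzi replicating inside host cells; inhibitors lower the luminescence signal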
[13] = NIH3T3 cell viability loss – ATP luminescence, mouse fibroblasts, counter-screen, dose response (AID 2010); type: functional, cell-based;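 also: cells exposed to compound for about 90 hours before reading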
[14] = HPDE-C7 pancreatic duct cell viability loss – fluorescence, HTS (AID 430); type: functional, cell-based; conditions: Homo sapiens
[15] = viability loss of HPDE-C7K cells – cell-based, fluorescence, HTS, primary screen (AID 431); type: functional; conditions: Homo sapiens
[16] = viability of PTEN-deleted HCT116 cells – cell-based, HCT116 PTEN knockout, dose response (AID 1047); type: functional;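 also: HCT116 colon tumor cells with PTEN knocked out; cells exposed to compound for 60 hours before readout; potency for loss of cell viability measured by luminescence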
[17] = IC50 of insulin release inhibition, rat insulinoma INS-1E line, 5 mM glucose, cell-based (AID 1117331); type: functional
cells [18] = type: functional, cell-based; conditions: INS-1E
cells [19] = conditions: HEK293

Sequence of G-protein coupled receptor 183 (P32249 whole entry): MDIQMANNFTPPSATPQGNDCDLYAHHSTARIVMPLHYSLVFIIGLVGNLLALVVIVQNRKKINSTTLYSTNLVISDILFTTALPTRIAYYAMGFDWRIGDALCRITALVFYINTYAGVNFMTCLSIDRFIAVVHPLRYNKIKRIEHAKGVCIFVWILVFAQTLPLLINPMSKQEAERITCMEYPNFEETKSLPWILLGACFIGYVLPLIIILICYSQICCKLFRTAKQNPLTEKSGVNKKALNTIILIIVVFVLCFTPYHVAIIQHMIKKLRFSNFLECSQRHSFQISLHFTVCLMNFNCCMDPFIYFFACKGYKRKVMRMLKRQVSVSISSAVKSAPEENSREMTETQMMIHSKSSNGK

Q: For `O=C(CCc1ccc(F)cc1)N1CCN(S(=O)(=O)/C=C/c2ccccc2)CC1`, which IC50 [1] is on record?
A: 0.113 µM (active)

Q: With `Cc1ccc(OCC(=O)Nc2nnc(S(=O)(=O)N3CCC(C)CC3)s2)cc1` as the molecule, how does the IC50 (Genome polyprotein) read?
A: > 49.8 µM (not active)

Q: Which results are given for `CO[C@@H]1CN(C)C(=O)c2ccc(NC(=O)Nc3ccccc3F)cc2OC[C@@H](C)N(Cc2ccccc2F)C[C@H]1C`?
A: AC50 [2]: 0.356 µM (active); AC50 [3]: 0.948 µM (active); AC50 [4]: 0.674 µM (active); AC50 [5]: 0.122 µM (active); AC50 [6]: 0.586 µM (active); AC50 [7]: 0.0449 µM (active)

Q: With `CC(NC(N)=O)C12CC3CC(CC(C3)C1)C2` (stereo not given) as the molecule, how does the IC50 [8] read?
A: > 100 µM (not active)

Q: For `CCC(C)NC(=O)c1c(N)n(/N=C/c2ccccn2)c2nc3ccccc3nc12` (stereo not given), which EC50 [9] is on record?
A: 30.2 µM (active)

Q: What about the CC50 [10] of the same molecule?
A: > 40 µM (active)

Q: What about the IC50 [11] of the same molecule?
A: 43.2 µM (inactive)

Q: What about the EC50 [12] of the same molecule?
A: 2.18 µM (active)

Q: And the EC50 [13]?
A: > 30 µM (not active)

Q: And the EC50 [14]?
A: 4.73 µM (active)

Q: What about the EC50 [15] of the same molecule?
A: 6.39 µM (active)

Q: What about the EC50 [16] of the same molecule?
A: 32.3 µM (active)

Q: Which IC50 [17] does the source give for `CCOc1cc(CC(=O)N[C@@H](CC(C)C)c2ccccc2N2CCCCC2)ccc1C(=O)O` [REPAGLINIDE] here?
A: 0.027 µM (active)

Q: What about the IC50 (cells [18]) of the same molecule?
A: 0.136 µM (active)

Q: With `Cc1ccc(C(C)C)c(OCCn2/c(=N/C#N)[nH]c3ccccc32)c1` as the molecule, how does the AC50 (cells [19]) read?
A: 34 µM (active)
